{"source": "patent US9889078B2", "about": "“Skin and/or hair whitening mixture” (Symrise AG, priority 2013, dated 2018)", "system": "human full-thickness skin explants", "assay": "ex-vivo study of lightening efficacy (melanin content) in human full-thickness skin explants", "assay_type": "cell-based", "conditions": "for Melanin reduction: Reduction vs. Standard (%): treatments versus placebo at day 6, phototype tanned", "method": "To evaluate the lightening efficacy of the test products an ex-vivo study using human full-thickness skin explants was performed. […] 1,2-Pentandiol was added to some of the blends to improve the penetration of the active ingredients into the skin layers.", "data": [{"compound": "CC(C)=CCC[C@@](C)(O)[C@@H]1CC=C(C)CC1", "note": "[Bisabolol]", "values": [{"measurement": "efficacy (melanin decrease)", "setting": "0.08% Bisabolol alone, ex vivo model, tanned phototype", "result": "did not have any efficacy"}]}, {"compound": "CC(c1ccccc1)c1ccc(O)cc1O", "note": "(centres unmarked) [Example C2, Phenylethyl Resorcinol]", "values": [{"measurement": "Melanin reduction: Reduction vs. Standard (%)", "result": "−13", "unit": "%"}]}, {"compound": "CC(c1ccccc1)c1ccc(O)cc1O", "note": "(centres unmarked) [Example C3, Phenylethyl Resorcinol]", "values": [{"measurement": "Melanin reduction: Reduction vs. Standard (%)", "result": "−21", "unit": "%"}]}, {"compound": "CC(C)=CCC[C@](C)(O)C1CC=C(C)CC1", "note": "(some centres unmarked) [Example C4, Bisabolol]", "values": [{"measurement": "Melanin reduction: Reduction vs. Standard (%)", "result": 0, "unit": "%"}]}, {"compound": "CC(c1ccccc1)c1ccc(O)cc1O", "note": "(centres unmarked) [Pheneylethyl Resorcinol, Phenylethyl Resorcinol]", "values": [{"measurement": "melanin decrease", "setting": "0.4% Phenylethyl Resorcinol alone, tanned phototype", "result": 21, "unit": "%"}]}]}
